From patent US8785383B2, “Mast cell stabilizers in the treatment of obesity” (The Brigham and Women's Hospital, Inc., priority 2007, dated 2014)
Entries after “also recorded” stand apart in the source; their conditions may differ.

Assays:
[1] = test system: IL6, TNF-α, IFN-γ, MCP-1, adiponectin, MMP-9, CatS, CatL, leptin in serum and/or WAT; test: ELISA of serum and WAT adipokines; assay type: in vivo, mouse
Excerpt: Mouse body weight was monitored weekly. […] Mouse blood samples were collected for serum adipokine measurement.
Frozen mouse WAT was pulverized and lysed in a RIPA buffer (Pierce, Rockford, Ill.) containing a protease inhibitor cocktail (Calbiochem, San Diego, Calif.). Both WAT and serum samples were subjected to ELISA analysis for IL6 (BD Biosciences), TNF-α (PeproTech, Rocky Hill, N.J.), IFN-γ (PeproTech), MCP-1 (PeproTech), adiponectin (R&D Systems), MMP-9 (R&D Systems), CatS (R&D Systems), and CatL (Bender MedSystems Inc, Burlingame, Calif.) according to manufacturers' instructions.

[2] = test system: UCP1, fibronectin, Glut4, insulin receptor; test: Immunoblot analysis of tissue protein extracts; assay type: in vivo, mouse
Excerpt: Wild-type (C57BL/6), Il6^−/− (C57BL/6, N11), and Ifng^−/− (C57BL/6, N10) mice were purchased from the Jackson Laboratories (Bar Harbor, Me.). Congenic Tnf^−/− (C56BL/6, N10) and mast cell-deficient Kit^W-sh/W-sh (C57BL/6, N>10) mice were generated by back-crossing to the C57BL/6 background as described (Sun, et al. Nat. Med. 13:719-724 (2007); Wolters, et al., Clin Exp Allergy 35:82-88 (2005)). The standing committee of Harvard Medical School approved all animal research protocols, and all mice were housed in a pathogen-free facility. To induce obesity, we fed 6-week-old mice (females and males) a Western diet (Research Diet, New Brunswick, N.J.) for 12-20 weeks. Mouse body weight was monitored weekly. By the end of each course of Western diet consumption, we performed glucose tolerance and energy expenditure assays as reported previously (Yang, et al., Nat. Cell Biol. 9:970-977 (2007)). Mouse blood samples were collected for serum adipokine measurement. Subcutaneous, visceral, and brown fat and skeletal muscle were harvested individually for protein extraction and paraffin section preparation. Tissue protein extracts were used for ELISA, immunoblot analysis, and cysteinyl cathepsin active site labeling. For immunoblot analysis, 30 μg of proteins were separated on an 8% SDS-PAGE to detect 220 kDa fibronectin (mouse monoclonal, 1:100, NeoMarkers, Fremont, Calif.) and 200 kDa insulin receptor (mouse monoclonal, 1:100, Calbiochem, San Diego, Calif.) or a 12% SDS-PAGE to detect Glut4 (mouse monoclonal, 1:200, R&D Systems, Minneapolis, Minn.), UCP1 (rabbit polyclonal, 1:3000, Abcam, Cambridge, Mass.), actin (mouse monoclonal, 1:500, Abcam), and glyceraldehyde-3-phosphate dehydrogenase (GAPDH, rabbit polyclonal, 1:1000, Santa Cruz Biotechnolog, Santa Cruz, Calif.). For cathepsin active site labeling, 30 μg of proteins were incubated with 1 μl of 600 mM dithiothreitol and 1 μl of [^125I]-JPM in a pH5.5 buffer as previously described. After incubating the reaction mixture at 37° C. for 1 hour, labeled proteins were separated on a 12% SDS-PAGE. Gel was stained with Coomassie blue, destained, dried, and exposed to an x-ray film. The liver and GI tract were harvested for histologic analysis.

[3] = test system: obese and diabetic WT mice; test: Treatment of established diet-induced obesity and diabetes (four treatment groups); assay type: in vivo, mouse
Excerpt: To assess the direct participation of mast cells in obesity, we studied mast cell-deficient Kit^W-sh/W-sh mice in diet-induced obesity. While Kit^W-sh/W-sh mice lack mature mast cells due to an inversion mutation of the c-Kit promoter region (Duttlinger, et al., Proc. Nat'l Acad. Sci. USA 92:3754-3758 (1995)), numbers and activities of other leukocytes in blood are normal, permitting probing of mast cell functions in vivo. […] To extend our observations, we fed WT mice a Western diet for 12 weeks to produce obesity and diabetes, and grouped these obese and diabetic mice into four treatment groups: I, continued feeding with a Western diet; II, switched to a chow diet; III, continued feeding with a Western diet together with a daily i.p. injection of DSCG; IV, switched to a chow diet and treated with DSCG.

[4] = test system: mast cell-deficient Kit^W-sh/W-sh mice; test: DSCG treatment of mast cell-deficient Kit W-sh/W-sh mice on Western diet; assay type: in vivo, mouse
Excerpt: (§1) Wild-type (C57BL/6), Il6^−/− (C57BL/6, N11), and Ifng^−/− (C57BL/6, N10) mice were purchased from the Jackson Laboratories (Bar Harbor, Me.). Congenic Tnf^−/− (C56BL/6, N10) and mast cell-deficient Kit^W-sh/W-sh (C57BL/6, N>10) mice were generated by back-crossing to the C57BL/6 background as described (Sun, et al. Nat. Med. 13:719-724 (2007); Wolters, et al., Clin Exp Allergy 35:82-88 (2005)). The standing committee of Harvard Medical School approved all animal research protocols, and all mice were housed in a pathogen-free facility. To induce obesity, we fed 6-week-old mice (females and males) a Western diet (Research Diet, New Brunswick, N.J.) for 12-20 weeks. Mouse body weight was monitored weekly. By the end of each course of Western diet consumption, we performed glucose tolerance and energy expenditure assays as reported previously (Yang, et al., Nat. Cell Biol. 9:970-977 (2007)). Mouse blood samples were collected for serum adipokine measurement. Subcutaneous, visceral, and brown fat and skeletal muscle were harvested individually for protein extraction and paraffin section preparation. Tissue protein extracts were used for ELISA, immunoblot analysis, and cysteinyl cathepsin active site labeling. […]

[5] = test system: liver, gastrointestinal tract, pancreas
Excerpt: Wild-type (C57BL/6), Il6^−/− (C57BL/6, N11), and Ifng^−/− (C57BL/6, N10) mice were purchased from the Jackson Laboratories (Bar Harbor, Me.). Congenic Tnf^−/− (C56BL/6, N10) and mast cell-deficient Kit^W-sh/W-sh (C57BL/6, N>10) mice were generated by back-crossing to the C57BL/6 background as described (Sun, et al. Nat. Med. 13:719-724 (2007); Wolters, et al., Clin Exp Allergy 35:82-88 (2005)). The standing committee of Harvard Medical School approved all animal research protocols, and all mice were housed in a pathogen-free facility. To induce obesity, we fed 6-week-old mice (females and males) a Western diet (Research Diet, New Brunswick, N.J.) for 12-20 weeks. Mouse body weight was monitored weekly. […]
Human and mouse WAT and muscle tissues were fixed with 10% formalin overnight and embedded in paraffin, from which 5 μm sections were prepared. […] Researchers blinded to the origin of tissue counted human tryptase-positive and CD117-positive mast cells, and data are presented as cell numbers per mm^2. CD31-positive areas in WAT and muscle were determined using Image-Pro Plus software as described, and data were presented as percentage of CD31-positive areas (Wang, et al., J. Biol. Chem. 281:6020-6029 (2006); Wild, Microvasc Res. 59:368-376 (2000)). […]

[6] = test system: Western diet-fed wild-type (C57BL/6) mice; test: Glucose tolerance assay in Western diet-fed mice; assay type: in vivo, mouse; conditions: WT mice treated with DSCG
Excerpt: as §1

[7] = test system: CD117-positive mast cells and CD31-positive areas in WAT and muscle; test: Immunohistology of WAT and muscle (CD117 mast cells, CD31 microvessels); assay type: in vivo, mouse; conditions: DSCG-treated vs untreated mice, same dietary conditions
Procedure: Human and mouse WAT and muscle tissues were fixed with 10% formalin overnight and embedded in paraffin, from which 5 μm sections were prepared. Anti-human mast cell tryptase (mouse monoclonal, 1:100, Dako, TRAPPES CEDEX, France), anti-mouse mast cell CD117 (rat monoclonal, 1:10, eBiosciences, Inc., San Diego, Calif.), and anti-mouse CD31 (rat monoclonal, 1:400, Pharmingen, San Diego, Calif.) immunostained for mast cells and microvessels on WAT, muscle, and liver sections. Researchers blinded to the origin of tissue counted human tryptase-positive and CD117-positive mast cells, and data are presented as cell numbers per mm^2. CD31-positive areas in WAT and muscle were determined using Image-Pro Plus software as described, and data were presented as percentage of CD31-positive areas (Wang, et al., J. Biol. Chem. 281:6020-6029 (2006); Wild, Microvasc Res. 59:368-376 (2000)). Hematoxylin and eosin staining assisted histologic assessment of the GI tract.

[8] = test system: Western diet-fed wild-type (C57BL/6) mice; test: Energy expenditure assay; assay type: in vivo, mouse; conditions: DSCG-treated WT mice vs untreated WT mice
Excerpt: as §1

[9] = test system: Western diet-fed wild-type (C57BL/6) mice; test: Diet-induced obesity, Western diet with daily i.p. DSCG; assay type: in vivo, mouse
Excerpt: as §1

For `O=C(O)c1cc(=O)c2c(OCC(O)COc3cccc4oc(C(=O)O)cc(=O)c34)cccc2o1` [DSCG, disodium cromoglycate], the serum leptin levels ([1]; male and female mice, Western diet, vs WT controls) was “significantly lower levels”, the “CatS levels in serum (ELISA)” value ([1]; serum) was “reduced significantly” and the CatL level ([1]; serum and/or WAT, Western diet) was “did not change significantly”. For the same compound, the IFN-γ level ([1]; serum and/or WAT, Western diet) was “lower levels”, the IL6 level ([1]; serum and/or WAT, Western diet) was “lower levels” and the MCP-1 level ([1]; serum and/or WAT, Western diet) was “lower levels”. The TNF-α level ([1]; serum and/or WAT, Western diet) was “lower levels”, the adiponectin level ([1]; serum and/or WAT, Western diet) was “did not change significantly” and the “cathepsin S (CatS) level” value ([1]; serum and/or WAT, Western diet) was “lower levels”. The “matrix metalloprotease-9 (MMP-9) level” value ([1]; serum and/or WAT, Western diet) was “lower levels”, the “Glut4 in WAT and muscle” value ([2]; DSCG-treated mice) was “more” and the “fibronectin in WAT and muscle” value ([2]; DSCG-treated mice) was “more”. For the same compound, the “insulin receptor (IR) in WAT and muscle” value ([2]; DSCG-treated mice) was “more”, the “brown fat UCP1 expression” value ([2]; brown fat, vs WT control mice) was “obviously higher brown fat UCP1 expression” and the body weight decrease ([3]; group III: obese mice, continued Western diet plus daily i.p. DSCG, eight weeks) was 12%. For the same compound, the glucose tolerance ([3]; group IV: chow diet plus DSCG, compared among four groups) was “highest glucose tolerance among the four groups”, the “body weight at which mice stabilized” value ([3]; group IV: chow diet plus DSCG, eight weeks) was 40˜41 grams and the body weight decrease ([3]; group IV: obese mice switched to chow diet and treated with DSCG, eight weeks) was 19%. The “glucose tolerance in Kit^W-sh/W-sh mice” value [4] was “did not further change”, the “body weight (gain) of Kit^W-sh/W-sh mice” value ([4]; Western diet) was “did not further affect the body weight; also recorded: did not further change” and the “mast cells or lipid-loaded adipocytes in livers” value ([5]; Western diet-fed WT mice treated with DSCG) was “did not detect mast cells or lipid-loaded adipocytes”. The “food/water intake and toxic effect” value ([5]; mouse, in vivo) was “neither reduced food/water intake nor any toxic effect of DSCG”, the glucose tolerance [6] was “significantly improved glucose tolerance” and the “mast cell numbers in WAT” value [7] was “mast cell numbers similar to WAT from untreated mice”. For the same compound, the “O2 consumption and CO2 production” value [8] was “significantly more O2 consumption and CO2 production”, the resting metabolic rate [8] was “increased resting metabolic rate” and the body weight gain ([9]; male WT mice, Western diet 12 weeks, daily i.p. injection, vs untreated WT) was “attenuated body weight gain”. For the same compound, the “total subcutaneous and visceral fat” value ([9]; male mice, Western diet, vs untreated WT controls) was “significantly less total subcutaneous and visceral fat”.
